In data set [1] the test system is U87 cells. Nature of the data set: Viability test (LIVE/DEAD kit, flow cytometry). It counts as cell-based, Human. The method, then: (§1) Cell culture: Human glioblastoma-astrocytoma cell line U87 MG from the American Type Culture Collection (reference ATCC-HTB-14) were cultured in Dulbecco's modified eagles medium (DMEM, Gibco Corp) supplemented with 10% fetal calf serum (FCS, Gibco Corp), in a humidified atmosphere with 5% CO2 at 37° C.
Viability Test: The viability study of U87 cells treated or not with the alkoxyamine was measured by the LIVE/DEAD® Viability/Cytotoxicity Kit (Molecular Probes, Invitrogen, Life Technologies). Briefly, the cells were allowed to grow during 24 h on 24 multiwell plates (Becton-Dickinson, 2 cm^2/well). They were then treated with the alkoxyamine at concentrations ranging from 0.1 to 3 mM and tested for viability at distinct observation times (1, 3, 6, 24 or 72 h). To do this the adherent cells were dissociated from the plate by trypsinization and pelleted by centrifugation. Then, the cells were resuspended at 10^6 cells/mL on calcein-am and ethidium homodimer-1 solution during 20 minutes at room temperature and analyzed on a Guava easyCyte flow cytometer/counter (Millipore). U87 cells viability was also measured after treatment with previously homolysed alkoxyamine. For these experiments, the alkoxyamine was incubated in the culture medium during 72 h at 6 mM without the cells. U87 cells were then treated with different concentrations of this homolysed alkoxyamine for 1 h and a viability test was performed as previously described. The viability test in the presence of the free radical scavenger was carried out with an alkoxyamine concentration of 3 mM and an incubation time of 1 h. U87 cells viability was measured versus increasing concentrations the radical scavenger, trihydroxyethylrutin (Santa Cruz Biotechnology, inc.) namely, 20, 50 or 100 mM.

In data set [2] the test system is U87 cells. Nature of the data set: Oxidative stress (carboxy-H2DCFDA probe, flow cytometry). The note with it: 3 mM, 1 h. Format: cell-based, Human. Here is the method: as §1
Oxidative stress: The cells were grown in a 24 multiwell plate as previously described. Then, cells were dissociated using 0.05% trypsin (Invitrogen, Carlsbad, Calif., USA) and suspended at a density of 1×10^6 cells/mL in carboxy-H2DCFDA (Molecular Probes, Invitrogen, Life Technologies) at 50 μM. After 30 minutes incubation at 37° C., cells were washed with phosphate buffered saline (PBS). Cells were centrifuged and resuspended with cell culture media containing or not 3 mM alkoxyamine with or without trihydroxyethylrutin at 20 or 50 mM. After incubation time the cells were washed and analyzed on a Guava easyCyte flow cytometer/counter.

The subject of data set [3] is U87 cells. Nature of the data set: Mitochondrial alterations measurements (TMRE, NAO). Format: cell-based, Human. The method, then: as §1
Mitochondrial alterations measurements. The red fluorescent dye tetramethylrhodamine ethyl ester (TMRE, Molecular Probes, Invitrogen, Life Technologies) was used to follow variations in mitochondrial membrane potential. This cationic probe accumulates in polarized mitochondria through the electrochemical gradient. Nonyl Acridine Orange (NAO, Molecular Probes, Invitrogen, Life Technologies) was then used as a complementary assay to assess the changes in mitochondrial morphology. Cells were plated on 24 multi-well plates (Becton-Dickinson, 2 cm^2/well) during 24 h and treated with a range of ALK-1 concentrations (0.1; 0.25; 0.375; 0.5; 0.75; 1.0 and 1.5 mM). After 3, 24 or 72 h, cells were resuspended in TMRE (250 nM) or NAO (500 nM) and incubated 30 minutes at 37° C., 5% CO2. Incubation with 0.5 mM of Carbonyl cyanide 3-chlorophenylhydrazone (CCCP, Sigma-Aldrich) was performed as positive control of the mitochondrial depolarization staining. Then, cells were washed and analyzed by flow cytometry. All the experiments were performed three times.

Data set [4] concerns U87 cells. The data set is described as follows: Cell death analysis by annexin V/propidium iodide staining. Format: cell-based, Human. The method, then:
as §1
Cell death analysis by annexin V/propidium iodide staining. Cell death was detected by annexin V-FITC (Molecular Probes, Invitrogen, Life Technologies) binding to exposed […] (PS) residues at the surface of cells. Cells were treated with ALK-1 at concentrations ranging from 0.1 to 1.5 mM at 37° C. and tested at distinct observation times (3, 24 or 72 h). After treatment, cells were re-suspended in staining buffer containing propidium iodide (PI, 2 μg/mL) and annexin V-FITC. Double-labeling was performed at room temperature for 15 min in darkness. Then, the percentage of viable (IP−/AV−), early apoptotic (IP−/AV+) and late apoptosis/necrotic cells (IP+/AV+) was quantified by flow cytometry. These experiments were performed twice.

Data set [5] relates to U87 cells. Nature of the data set: Apoptosis detection through caspase-3/-7 assay. It counts as cell-based, Human. Here is the method:
as §1
Apoptosis detection through caspase-3/-7 assay. Quantitative assessment of apoptotic cells was also conducted by the detection of caspase activity using the Vybrant® FAM Caspase-3 and -7 Assay Kit (Molecular Probes, Invitrogen, Life Technologies). Briefly, cells were treated with the previously described ALK-1 concentrations during 3, 24 or 72 h. After the alkoxyamine treatment, the cells were dissociated from the support, washed and incubated 1 h at 37° C. in FLICA working solution. Then, the cells were washed and green fluorescence was measured by flow cytometry. These experiments were performed twice.

The nature of data set [6]: Monitoring of ALK-1 homolysis by Overhauser-enhanced MRI (OMRI). Format: physicochemical. From the text:
EPR Cavity and MRI devices. The OMRI experiment were done in a C-shaped 0.2 T MRI system (Magnetom Open Viva, Siemens, Erlangen, Germany) and a resonant TE011 transverse electric mode EPR cavity setup (Bruker, Wissembourg, France) as described previously. The EPR cavity, placed at the center of the magnet, was used to saturate the electron spin transition of the nitroxide SG1 produced upon ALK-1 homolysis. A homemade saddle-shaped MRI coil (28 mm in diameter and 29 mm in length) in the EPR cavity was used for imaging.
Electron spin saturation was carried out at 5.4573 GHz, corresponding to the first line at high field from the center of the EPR spectrum. The proton frequency was 8.24 MHz. Sample temperature was kept at 37° C.
OMRI experiments were performed in two NMR tubes (4 mm inner diameter): one containing 0.8 mM of SG1 nitroxide in phosphate buffer saline (not shown) and the other with 0.8 mM of ALK-1 in DMEM, 10% FCS. ALK-1 homolysis was followed for 48 hours.
Pulse sequences. […] All MR adjustments were done manually, using the same fixed receiver amplification gain for both measurements, without (Soff) and with (Son) HF irradiation, so that signals can be directly compared and Overhauser enhancements (Son/Soff) calculated.
Post-processing. […] Signal intensity was measured in a rectangular region of interest of 2 mm^2 positioned in the NMR tube area. […]

The conditions of data set [7]: cited from earlier work.

A value given as a limit tells only on which side of the number the result lay.

As for `CCOP(=O)(OCC)C(N(OC(C)c1cc[n+](C)cc1)C(C)(C)C)C(C)(C)C` (stereo not shown) [ALK-1, N-methyl 4-(1-((tert-butyl(1-(diethoxyphosphoryl)-2,2-dimethylpropyl)amino)oxy)ethyl)pyridin-1-ium 4-methylbenzenesulfonate], the “cells saved by the free radical scavenger” value with U87 cells [1] (3 mM alkoxyamine, 1 h, with free radical scavenger (trihydroxyethylrutin)) stood at 80%. In addition, the cells killed entry in the data set on U87 cells [1] (3 mM, one hour) was “approximately 75%”. Further, the cytotoxic effect entry in the data set on U87 cells [1] (0.1 to 3 mM) is “dose-dependent cytotoxic effect”. For the same molecule, the “toxicity for U87 cells of previously homolysed alkoxyamine” value in the data set with U87 cells [1] (same concentration, previously homolysed (72 h in culture medium), 1 h treatment) was “do not carry any toxicity”. The oxidative stress result in the data set with U87 cells [2] is given as “strong oxidative stress”. Moreover, the NAO staining entry in the data set on U87 cells [3] (24 h, ALK-1 concentrations greater than 0.5 mM) is “increased”. In the data set on U87 cells [3] (all times of observation (3, 24, 72 h)), the “concentration from which the mitochondrial potential drops (TMRE)” value is recorded as not below 0.5 mM. Also, the “necrotic or apoptotic cells (PI+/AV+)” value in the data set with U87 cells [4] (3 h, 1.5 mM) is reported as “most cells were necrotic or apoptotic cells”; in the data set on U87 cells [4] (24 h, 1 mM), 94%. Further, the “PI+/AV+ cells” value in the data set with U87 cells [4] (72 h, 0.5 mM) was “most cells were PI+/AV+”. In the data set on U87 cells [5] (3 h, 1.5 mM), the “cells carrying activated caspases” value was 92%. The caspase positive cells was found to be 88% in the data set on U87 cells [5] (24 h, 1 mM) and 80% with U87 cells [5] (72 h, 0.5 mM). Also, the “caspase+ cells” value with U87 cells [5] (72 h, 0.25 mM) is reported as “more than 40%”. Also, the “Ea (homolysis activation energy)” value in data set [6] (afforded by the OMRI t1/2) was 26.1 kcal/mol. In addition, the half-life at 0.8 mM in data set [6] (cell culture medium (DMEM, 10% FCS), 0.8 mM, culture cell medium, 37° C., OMRI, read-out: experimental t1/2 of homolysis) was approximately 2.08 h. Also, the “Ea (homolysis activation energy), value reported” value in data set [7] was 25.3 kcal/mol.
As to `N#CC(C#N)=NNc1cccc(Cl)c1` [CCCP, Carbonyl cyanide 3-chlorophenylhydrazone, reference compound], the “mitochondrial potential (TMRE)” value with U87 cells [3] (0.5 mM CCCP positive control, all incubation times) is “expected drop of the mitochondrial potential”. Also, the “accessibility of the cardiolipins to NAO” value in the data set on U87 cells [3] (0.5 mM CCCP, independently of incubation time) is “either neutral or positive”.
